Laboratory results reported in article PMC12668308, “A Novel Antimalarial Agent that Inhibits Protein Synthesis in Plasmodium falciparum” (Angewandte Chemie (International Ed. in English), 2025).
Where two headings read alike, the source gives them in different places.

Columns and labels:
[1] = target: Aquaglyceroporin (W7K5E1) (Plasmodium falciparum, UniProt Q8II36); experiment: iSPP profiling, P. falciparum lysate; assay type: binding; conditions: 100 µM compound 34
Procedure: (§1) P. falciparum NF54 lysates were extracted as described in ^[26^] . The parasite asynchronous culture was extracted once 3-5% parasitemia was reached. Saponin lysis was done as described in 2.2.10. Once the parasite pellet was obtained, 2.5 volumes of ice-cold lysis buffer (50 mM Tris/HCl pH 7.5 (Avantor), 5% glycerol (Sigma-Aldrich), 150 mM NaCl (Carl Roth), 1.5 mM MgCl2 (Sigma-Aldrich), 1 mM DTT (Carl Roth), 0.8% IGEPAL CA-630 (Sigma-Aldrich), 1X Halt Protease and Phosphatase Inhibitor-Cocktails EDTA-free (Thermo Fisher Scientific)) was added to the parasite pellet. The lysate solution was subjected to three cycles of flash freeze-thaw with liquid nitrogen and ddH2O at RT. The lysates were centrifuged at 20,000 g for 20 minutes at 4 °C. The soluble protein fraction (supernatant) was collected and the protein content was quantified using the BCA assay (Pierce™ BCA Protein Assay Kit, Thermo Fisher Scientific). The lysate was stored at -80 °C until further use.
(§2) The P. falciparum lysate was thawed on ice and diluted to 0.8 mg/mL. The lysate was aliquoted, and each aliquot was incubated with either a vehicle control (DMSO), 34 (dissolved in DMSO), or varying concentrations of 31 (dissolved in DMSO) at 0.01 µM, 0.1 µM, 10 µM, 50 µM, and 100 µM. Subsequently, the samples were incubated at room temperature for 30 minutes using a rotating mixer. After distribution into a 96-well plate, the samples were treated with increasing concentrations of A.E.A. (v/v) ranging from 14% to 28% (14, 16, 18, 20, 22, 24, 26, and 28%). Following a 20-minute incubation at 37°C with shaking at 750 rpm, the samples were centrifuged at 4400 g for 35 minutes to remove precipitated proteins. The soluble fractions were then pooled in equal volumes into a single sample using the Bravo Automated Liquid Handling Platform. […]
(§3) The raw LFQ-DIA intensity values of biological replicates across all conditions were normalized to the median abundance using Excel. […] Dose-dependent curves were generated using normalized protein intensity values, expressed as a ratio to the vehicle control. […]

[2] = target: Phosphatidylinositol 4-kinase (W7K9N9) (Plasmodium falciparum, UniProt W7K9N9); experiment: iSPP profiling, P. falciparum lysate; assay type: binding; conditions: 100 µM compound 34
Procedure: as §1, §2, §3

[3] = system: 3-hydroxyacyl-[acyl-carrier-protein] dehydratase (W7K0B9); experiment: iSPP profiling, P. falciparum lysate; assay type: binding; conditions: 100 µM compound 34
Procedure: as §1, §2, §3

[4] = system: NF54/iGP1_RE9H^ulg8 stage V gametocytes; experiment: Dose-response assay on gametocytes, MitoTracker-based readout; assay type: cell-based, Plasmodium falciparum
Description: Compound 31 was also found to be active against the sexual stage of P. falciparum using the MitoTracker‐based readout. This readout is based on quantifying MitoTracker‐based gametocyte viability as recently described.^[ [7] ^] Briefly, high content imaging of MitoTracker‐ and Hoechst‐stained cells and automated image analysis using the MetaXpress software was used to determine the number of viable gametocytes based on mitochondrial activity and cellular shape.
Sexual commitment was induced in the NF54/iGP1_RE9H^ulg8 parasite line as described in ^[18,^52]. Synchronous ring stage cultures at 2-3% parasitemia (8-16 hpi) were grown for 48 hours in a culture medium lacking D-(+)-glucosamine hydrochloride (GlcN) and containing 1.25 µM Shield-1 to induce GDV1-GFP-DD expression. The induction medium was replaced with standard culture medium containing 50 mM N-acetyl-glucosamine (GlcNAc) for six consecutive days.) to selectively kill asexual parasites.^[53^,54^] Gametocytes were maintained in standard culture medium from day 7 onwards. During the first seven days of gametocyte development, the culture medium was exchanged daily and every second day subsequently. Visual inspection of Hemacolor-stained thin blood smears with a 100x immersion oil objective (total magnification = 1000x) was performed to assess gametocytemia.
Dose response assays were performed in biological triplicates, each in technical duplicate, as described in ^[18, ^55]. Synchronous NF54/iGP1_RE9H^ulg8 gametocyte cultures were resuspended at ~2% gametocytemia in an assay medium at 3% haematocrit. […] MitoTracker-based gametocyte viability was quantified using a modified version of published protocols.^[56^,57^] […] After imaging two technical replicates, the results were averaged and normalized to the plateau of sub-lethal compound concentrations using the “first mean in each data set” function and IC50 values were calculated using nonlinear, four parameter (variable slope) curve fitting in GraphPad Prism (version 8.3.0).

Aquaglyceroporin (W7K5E1), sequence (Q8II36 whole entry, one chain of several): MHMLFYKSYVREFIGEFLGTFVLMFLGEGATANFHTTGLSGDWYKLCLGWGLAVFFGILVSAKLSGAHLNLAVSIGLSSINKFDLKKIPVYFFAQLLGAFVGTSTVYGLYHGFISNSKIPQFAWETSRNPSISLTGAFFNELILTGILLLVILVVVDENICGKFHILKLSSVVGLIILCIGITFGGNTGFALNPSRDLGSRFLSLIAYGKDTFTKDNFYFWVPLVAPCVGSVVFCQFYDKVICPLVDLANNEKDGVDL
Phosphatidylinositol 4-kinase (W7K9N9), sequence (W7K9N9 entry or part of it): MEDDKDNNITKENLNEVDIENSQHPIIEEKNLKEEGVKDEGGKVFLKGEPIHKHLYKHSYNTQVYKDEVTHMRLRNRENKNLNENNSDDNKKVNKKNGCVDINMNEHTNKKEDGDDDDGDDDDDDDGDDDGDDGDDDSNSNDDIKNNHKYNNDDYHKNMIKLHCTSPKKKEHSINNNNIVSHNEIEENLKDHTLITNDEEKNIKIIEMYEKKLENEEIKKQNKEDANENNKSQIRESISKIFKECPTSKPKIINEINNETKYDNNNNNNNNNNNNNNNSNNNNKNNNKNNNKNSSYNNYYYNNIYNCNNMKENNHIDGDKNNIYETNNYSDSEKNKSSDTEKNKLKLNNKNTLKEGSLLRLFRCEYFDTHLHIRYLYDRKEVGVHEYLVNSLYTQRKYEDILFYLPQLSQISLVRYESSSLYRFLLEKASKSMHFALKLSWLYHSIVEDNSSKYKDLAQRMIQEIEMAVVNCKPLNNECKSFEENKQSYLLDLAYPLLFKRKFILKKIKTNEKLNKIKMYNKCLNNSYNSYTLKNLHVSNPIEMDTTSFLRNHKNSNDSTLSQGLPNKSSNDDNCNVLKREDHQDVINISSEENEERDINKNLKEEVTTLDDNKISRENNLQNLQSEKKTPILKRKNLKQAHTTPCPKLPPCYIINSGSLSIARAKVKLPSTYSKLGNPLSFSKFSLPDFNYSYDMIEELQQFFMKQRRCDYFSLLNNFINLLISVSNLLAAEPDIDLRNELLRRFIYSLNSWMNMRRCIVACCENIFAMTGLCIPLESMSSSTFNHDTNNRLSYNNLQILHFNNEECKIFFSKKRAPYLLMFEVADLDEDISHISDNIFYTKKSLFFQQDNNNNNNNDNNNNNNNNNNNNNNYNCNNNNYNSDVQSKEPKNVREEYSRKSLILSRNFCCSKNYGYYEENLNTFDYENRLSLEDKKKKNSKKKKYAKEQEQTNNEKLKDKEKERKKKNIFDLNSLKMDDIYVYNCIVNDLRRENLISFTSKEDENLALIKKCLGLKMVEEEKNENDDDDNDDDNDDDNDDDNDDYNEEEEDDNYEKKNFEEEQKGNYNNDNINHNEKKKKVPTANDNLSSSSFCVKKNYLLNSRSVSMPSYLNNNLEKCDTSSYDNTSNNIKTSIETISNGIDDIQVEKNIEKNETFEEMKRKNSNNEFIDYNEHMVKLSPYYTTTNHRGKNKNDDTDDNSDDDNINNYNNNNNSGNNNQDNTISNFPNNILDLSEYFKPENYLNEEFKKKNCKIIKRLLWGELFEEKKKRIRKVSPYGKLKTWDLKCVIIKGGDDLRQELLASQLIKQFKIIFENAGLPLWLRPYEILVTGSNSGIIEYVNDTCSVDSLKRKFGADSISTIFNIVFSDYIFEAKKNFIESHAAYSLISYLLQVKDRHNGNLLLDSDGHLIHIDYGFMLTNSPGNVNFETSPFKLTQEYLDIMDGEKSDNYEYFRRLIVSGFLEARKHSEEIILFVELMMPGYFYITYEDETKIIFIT

SMILES	log2FC [1]	log2FC [2]	log2FC [3]	IC50 ([4]; Plasmodium falciparum, NF54, 72 h, read-out: IC50 mature (stage V) gametocytes, 72 h exposure, MitoTracker readout, N = 3) [nM]	IC50 ([4]; read-out: IC50 mature (stage V) gametocytes, 72 h exposure, MitoTracker readout, N = 3) [nM]	fold reduction in activity against the sexual stages compared to the asexual stage ([4]; stage V gametocytes vs NF54 asexual) [fold]
O=C(Nc1cc(CN2CCOCC2)ccc1F)c1cccc(Oc2cc(C(F)(F)F)ccn2)c1 [Compound 34, N-(2-Fluoro-5-(morpholinomethyl)phenyl)-3-((4-(trifluoromethyl)pyridin-2-yl)oxy)benzamide]	0.4199	0.5024	0.431	–	–	–
CN1CCN(Cc2ccc(O)c(NC(=O)c3cccc(Oc4cc(C(F)(F)F)ccn4)c3)c2)CC1 [Compound 31, N-(2-hydroxy-5-((4-methylpiperazin-1-yl)methyl)phenyl)-3-((4-(trifluoromethyl)pyridin-2-yl)oxy)benzamide]	–	–	–	354	< 500	91
